The values that follow come from patent US20240425523A1, “Compounds for the Degradation of EGFR Kinase” (Beigene Switzerland GMBH, priority 2023, published 2024).

What is called pIC50 is the negative decadic logarithm of the IC50, by convention in mol/L. Read a low pIC50 as a high IC50. The DC50 is the midpoint of the concentration-degradation curve. A high value points to degradation only at high concentration. One may read the Dmax as the greatest extent of degradation seen.

Format in all cases: cell-based
The target of experiment [1] is p-EGFR Del19/C797S (H1975-clone #23 cells) (Homo sapiens, UniProt P00533). The experiment in a line: Cell p-EGFR inhibition assay, HTRF, H1975-clone#23 (DEL19/C797S) cells. Conditions: 16 h treatment; for Imax (%): maximum percentage of pEGFR inhibition; for pIC50: pEGFR inhibition. The gist of the method:
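Phospho-EGFR read by overnight HTRF on lysates, normalized to DMSO-treated high control; IC50, Hill slope and Imax fitted. Compounds were applied for 16 h (10 uM top, 5-fold steps, 8 doses) to an H1975 single clone carrying only exogenous Del19/C797S EGFR after sgRNA knockout of endogenous copies.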
On the technique in general: TR-FRET usually uses a lanthanide donor and a delayed reading to cut background.

Experiment [2] has as its target T1, EGFR-L858R/C797S (H1975-clone #8 cells) (Homo sapiens, UniProt P00533, C797S/L858R).
T1 construct: expressed in transfected cells; host or cells: H1975 (endogenous EGFR knocked out, clone #8)
The experiment in a line: Cell degradation of EGFR, HTRF assay, H1975-clone#8 (L858R/C797S) cells. Conditions: 16 h treatment; for DC50: EGFR degradation; for Dmax: maximum percentage of degradation.

Experiment [3] deals with T2, p-EGFR L858R (BaF3-L858R cells) (Homo sapiens, UniProt P00533, L858R).
T2 construct: host or cells: BaF3
The experiment in a line: Cell p-EGFR inhibition assay, HTRF, BaF3-L858R cells. Conditions: 16 h treatment; for Imax (%): maximum percentage of pEGFR inhibition; for pIC50: pEGFR inhibition. The procedure, abridged:
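BaF3-L858R cells treated 16 h at 37 °C, 5% CO2 with compound from 10 uM top, 5-fold dilutions, 8 doses, in 0.1% DMSO medium. Lysates read overnight by HTRF p-EGFR antibodies; IC50 fitted to four-parameter curve against DMSO high control.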

Experiment [4] addresses T3, EGFR L858R (BaF3-L858R cells) (Homo sapiens, UniProt P00533, L858R).
T3 construct: host or cells: BaF3
The experiment in a line: Cell degradation of EGFR, HTRF assay, BaF3-L858R cells. Conditions: 16 h treatment; for DC50: EGFR degradation; for Dmax: maximum percentage of degradation. The procedure, abridged:
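BaF3-L858R cells treated 16 h at 37° C, 5% CO2 with compound (top 10 uM final, 5-fold, 8 doses, 0.1% DMSO). DC50 from four-parameter fit; Dmax is maximum percent degradation.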

pIC50: −log10 of the molar value.

On to `COC[C@@H]1CN(c2ccc3c(c2)N2CC4CC[C@H](COc5c(cnn5C)-c5cc(cc(C)n5)C(=O)/N=C/2N3)C4)CCN1C1CCN(c2ccc(NC3CCC(=O)NC3=O)cc2C)CC1` (stereo partly drawn) [Example 118, 3-((4-(4-((S)-4-((7^1R,7^3S,E)-1^1,2^6-dimethyl-3-oxo-5^2,5^3-dihydro-1^1H,5^1H-9-oxa-4-aza-5(2,1)-benzo[d]imidazola-2(2,4)-pyridina-1(4,5)-pyrazola-7(1,3)-cyclopentanacyclononaphane-5^6-yl)-2-(methoxymethyl)piperazin-1-yl)piperidin-1-yl)-3-methylphenyl)amino)piperidine-2,6-dione], for which the “Imax (%)” value is given as 100.2% in experiment [1] and 98.5% in experiment [3]. For the same compound, the figures for the negative logarithm of the IC50 (pIC50) in experiment [1] and in experiment [3] were 8.89 and 8.14, respectively. Besides, the DC50 was 5.97 nM in experiment [2] and 2.64 nM in experiment [4]. Besides, the values for the greatest degradation seen (Dmax) in experiment [2] and in experiment [4] were 73.7% and 79%, respectively.
Take `Cc1cc2cc(n1)-c1cnn(C)c1OC[C@H]1CCC(C1)CN1/C(=N/C2=O)Nc2ccc(N3CC(N(C)C4CCN(c5cc(F)c([C@H]6CCC(=O)NC6=O)c(F)c5)CC4)C3)cc21` [Example 124, (R)-3-(4-(4-((1-((7^1R,7^3S,E)-1^1,2^6-dimethyl-3-oxo-5^2,5^3-dihydro-1^1H,5^1H-9-oxa-4-aza-5(2,1)-benzo[d]imidazola-2(2,4)-pyridina-1(4,5)-pyrazola-7(1,3)-cyclopentanacyclononaphane-5^6-yl)azetidin-3-yl)(methyl)amino)piperidin-1-yl)-2,6-difluorophenyl)piperidine-2,6-dione]: in experiment [1], the “Imax (%)” value stood at 99.6% and the negative logarithm of the IC50 (pIC50) is 9.05. In experiment [2], this compound yielded a 50% degradation concentration (DC50) of 2.3 nM and a Dmax of 67.5%. Further, in experiment [3], the “Imax (%)” value was found to be 94.6% and the negative-log IC50 (pIC50) was 7.77. In experiment [4], the DC50 was found to be 3.58 nM and the Dmax came out at 71.1%.
On to `COC[C@H]1CN(c2ccc3c(c2)N2C[C@@H]4CC[C@H](COc5c(c(C)nn5CCO)-c5cc(cc(C)n5)C(=O)/N=C/2N3)C4)CCN1C1CCN(c2cc(F)c([C@H]3CCC(=O)NC3=O)c(F)c2)CC1` [Example 156, (R)-3-(2,6-difluoro-4-(4-((R)-4-((7^1R,7^3S,E)-1^1-(2-hydroxyethyl)-1^3,2^6-dimethyl-3-oxo-5^2,5^3-dihydro-1^1H,5^1H-9-oxa-4-aza-5(2,1)-benzo[d]imidazola-2(2,4)-pyridina-1(4,5)-pyrazola-7(1,3)-cyclopentanacyclononaphane-5^6-yl)-2-(methoxymethyl)piperazin-1-yl)piperidin-1-yl)phenyl)piperidine-2,6-dione], for which the “Imax (%)” value was determined as 100.92% in experiment [1] and 95.16% in experiment [3]. Besides, the values for the pIC50 in experiment [1] and in experiment [3] were 9.10 and 8.32, respectively. Further, the DC50 in experiment [2] was determined as 2.73 nM; in experiment [4] it was 2.11 nM. Moreover, the maximal degradation (Dmax) in experiment [2] came to 88%; in experiment [4], 87.4%.
Consider `Cc1cc2cc(n1)-c1c(C)nn(C)c1OC[C@H]1CC[C@H](C1)CN1/C(=N/C2=O)Nc2ccc(N3[C@@H](C)CN(C4CCN(c5cc(F)c([C@H]6CCC(=O)NC6=O)c(F)c5)CC4)C[C@@H]3C)cc21` [Example 198, (R)-3-(4-(4-((3S,5S)-3,5-dimethyl-4-((7^1R,7^3S,E)-1^1,1^3,2^6-trimethyl-3-oxo-5^2,5^3-dihydro-1^1H,5^1H-9-oxa-4-aza-5(2,1)-benzo[d]imidazola-2(2,4)-pyridina-1(4,5)-pyrazola-7(1,3)-cyclopentanacyclononaphane-5^6-yl)piperazin-1-yl)piperidin-1-yl)-2,6-difluorophenyl)piperidine-2,6-dione], for which, in experiment [1], the “Imax (%)” value is 102.48% and the negative-log IC50 (pIC50) was 8.50. In experiment [2], this compound showed a 50% degradation concentration (DC50) of 4.41 nM and a Dmax of 100%. In experiment [3], the “Imax (%)” value is reported as 101.37% and the pIC50 is 8.18. In experiment [4], this compound displayed a 50% degradation concentration (DC50) of 7.56 nM and a Dmax of 89.7%.
Regarding `Cc1cc2cc(n1)-c1cnn(C)c1OC[C@H]1CCC(C1)CN1/C(=N/C2=O)Nc2cc(C)c(N3CCN([C@@H]4CCN(c5ccc(C6CCC(=O)NC6=O)nc5C)C[C@@H]4F)CC3)cc21` (stereo partly drawn) [Example 102, 3-(5-((3S,4R)-3-fluoro-4-(4-((7^1R,7^3S,E)-1^1,2^6,5^5-trimethyl-3-oxo-5^2,5^3-dihydro-1^1H,5^1H-9-oxa-4-aza-5(2,1)-benzo[d]imidazola-2(2,4)-pyridina-1(4,5)-pyrazola-7(1,3)-cyclopentanacyclononaphane-5^6-yl)piperazin-1-yl)piperidin-1-yl)-6-methylpyridin-2-yl)piperidine-2,6-dione], the “Imax (%)” value in experiment [1] is reported as 100.5%; in experiment [3] it was 95%. The values for the pIC50 in experiment [1] and in experiment [3] were 9.22 and 8.82, respectively. For the same compound, the half-maximal degradation concentration (DC50) in experiment [2] was determined as 0.76 nM; in experiment [4], 0.59 nM. Further, the Dmax in experiment [2] was found to be 91.5%; in experiment [4], 85.8%.
As to `COC[C@H]1CN(c2cc3c(cc2F)N/C2=N\C(=O)c4cc(C)nc(c4)-c4c(C)nn(C)c4OC[C@H]4CC[C@H](C4)CN23)CCN1C1CCN(c2cc(F)c([C@H]3CCC(=O)NC3=O)c(F)c2)CC1` [Example 165, (R)-3-(2,6-difluoro-4-(4-((R)-4-((7^1R,7^3S,E)-5^5-fluoro-1^1,1^3,2^6-trimethyl-3-oxo-5^2,5^3-dihydro-1^1H,5^1H-9-oxa-4-aza-5(2,1)-benzo[d]imidazola-2(2,4)-pyridina-1(4,5)-pyrazola-7(1,3)-cyclopentanacyclononaphane-5^6-yl)-2-(methoxymethyl)piperazin-1-yl)piperidin-1-yl)phenyl)piperidine-2,6-dione], the “Imax (%)” value in experiment [1] turned out to be 94.62%; in experiment [3], 93.3%. Also, the pIC50 in experiment [1] is 8.87; in experiment [3], 8.32. The 50% degradation concentration (DC50) in experiment [2] amounted to 4.45 nM; in experiment [4], 3.32 nM. Also, the values for the maximal degradation (Dmax) in experiment [2] and in experiment [4] were 88.7% and 91.1%, respectively.
Regarding `Cc1cc2cc(n1)-c1cnn(CCO)c1OC[C@H]1CCC(C1)CN1/C(=N/C2=O)Nc2ccc(N3CCN(C4CCN(c5cc(F)c([C@H]6CCC(=O)NC6=O)c(F)c5)CC4)CC3)cc21` [Example 122, (R)-3-(2,6-difluoro-4-(4-(4-((7^1R,7^3S,E)-1^1-(2-hydroxyethyl)-2^6-methyl-3-oxo-5^2,5^3-dihydro-1^1H,5^1H-9-oxa-4-aza-5(2,1)-benzo[d]imidazola-2(2,4)-pyridina-1(4,5)-pyrazola-7(1,3)-cyclopentanacyclononaphane-5^6-yl)piperazin-1-yl)piperidin-1-yl)phenyl)piperidine-2,6-dione], in experiment [1], the “Imax (%)” value is recorded as 98.9% and the pIC50 was 9.30. In experiment [2], half-maximal degradation (DC50) was put at 3.24 nM and the greatest degradation seen (Dmax) came to 52.2%. Moreover, in experiment [3], the “Imax (%)” value turned out to be 96.8% and the pIC50 is 7.96. Further, in experiment [4], half-maximal degradation (DC50) was put at 4.53 nM and the Dmax was determined as 70.7%.
